Test results from patent publication US12139488B2, “Pyrido[3,2-d]pyrimidine compounds uses thereof for treating a proliferative disease” (Universite de Montreal, priority 2021, dated 2024).
Read-outs that look alike come from different tables or passages of the source.

Key:
Assay type in all cases: cell-based, human
[1] = test system: pERK in HepG2 cells (NRAS-Q61L); experiment: Phospho-ERK inhibition (AlphaLISA), HepG2; details: for HepG2 pERK % Ymin: HepG2, value in parentheses; for IC50: HepG2
Procedure: (§1) All cancer cell lines (A375, A101D, A2058, RKO, HT29 SK-MEL 30, IPC298, HepG2, HCT-116, Lovo, SWV620, SW480, NCI-H358, NCI-H2122, Calu-6, NCIH2087, NCIH1755, NCIH1666 and Mewo) were obtained from ATCC and cultured in RPMI-1640 medium (Gibco) supplemented with 5% heat inactivated fetal bovine serum (FBS, Wisent) at 37° C. under 5% CO2. Cells were maintained in T175 flasks (Greiner). They were passaged by removing the culture medium, washing once in 10 mL of room temperature Phosphate Buffered Saline (PBS; Wisent) and incubating at 37° C. with 2 mL of 0.05% Trypsin (Thermo-Fisher). Trypsin was then inactivated by adding complete growth medium and the cells were then replated in a T175 culture dish at the appropriate dilution. All cell lines were routinely tested for mycoplasma contamination. Tissue type and mutational status of each cell line can be found in Table B.
(§2) AlphaLISA® SureFire® Ultra™ p-ERK 1/2 (Thr202/Tyr204) analysis was conducted on cells plated in 100 μL of complete RPMI-1640 growth medium in 96-well flat-bottomed transparent dishes (Costar) at a density indicated in Table C. Cells were maintained overnight at 37° C. under 5% CO2 before treatment with compounds' dilution series for one hour. The cell density in cells/cm^2 corresponds to cell number divided by the area of one well of a 96-well plate ([…]).
(§3) In a dilution series 100 μL/well of test substance dilution prepared in complete RPMI-1640 growth media was added to the cells. The dilution series is selected so that ten concentrations cover a range from 10 μM to 0.33 nM. If necessary the initial concentration of 10 μM is increased to 100 μM or lowered to 1 μM (as in the case of A375 and H1666 cells, which are generally more sensitive to the compounds) and further dilution is carried out accordingly. The final concentration of DMSO in the assay is set at 0.5%.
(§4) After treatment, media was removed and cells were lysed in 50 μL of 1× AlphaScreen Ultra Lysis Buffer (Perkin Elmer). The AlphaLISA® SureFire® Ultra™ p-ERK 1/2 (Thr202/Tyr2O4) (PerkinElmer) reactions were performed with 5 μL of cell lysate according to the manufacturer's specifications in 384-well proxyplates (Perkin Elmer) followed by overnight incubation of the reactions at room temperature in a humidified chamber. After completion of the reactions, the signals were recorded on an EnVision plate reader (Perkin Elmer) using built in AlphaLISA® settings.
(§5) The effect of each compound dilution on the pERK signal was expressed in % inhibition and calculated as follows. An internal 100% inhibition control ([…] trametinib, cat #HY-10999; MedChem Express; CAS #871700-17-3) was included in each plate and used as a measure of pERK background. First, the value obtained for trametinib was subtracted from each data point. The average of DMSO (vehicle) controls (set as 0% inhibition) was established and used to calculate % inhibition: % inhibition=100*(1-((pERK signalcompound)/(pERK signalDMSO)))
(§6) The ability of each compound to inhibit pERK signal was expressed as an IC50 value obtained by plotting the inhibition values for each data point of a dilution series and fitting the obtained curves using a log(agonist) versus response-variable slope (four parameters) function using GraphPadPrism (V7.0) or Dotmatics Screening Ultra platform.
(§7) When present, paradoxical pERK induction is inferred from the negative % inhibition values observed in the pERK IC50 curves of a compound.

[2] = test system: pERK in NCI-H2122 cells (KRAS-G12C); experiment: Phospho-ERK inhibition (AlphaLISA), NCI-H2122; details: for IC50: NCI-H2122; for NCI-H2122 pERK % Ymin: NCI-H2122, value in parentheses
Procedure: as §1, §2, §3, §4, §5, §6, §7

HepG2 cells (NRAS-Q61L) = experiment: Proliferation inhibition (CellTiter-Glo), HepG2; details: HepG2, 3 days, read-out: HepG2 Prolif. EC50
Procedure: as §1
CellTiter-Glo® viability analysis was conducted on cells plated in 100 μL of complete RPMI-1640 growth medium in 96-well flat-bottomed white opaque plates (Greiner or Croning) at a density indicated in Table E (for each CCL, number of cells plated per well of a 96-well plate to perform the CellTiter-Glo® cell viability assay). The cell density in cells/cm^2 would correspond to cell number divided by the area of one well of a 96-well plate (0.32 cm^2). […]
(§8) After 3 days of incubation, the growth media were removed by aspiration and 60 μL of diluted CellTiter-Glo® reagent (10 μL CellTiter-Glo® reagent+50 μL of PBS) was added to each well. […] Luminescence signals were then acquired on a Synergy Neo2 plate reader (Biotek).
(§9) The effect of each compound dilution on the proliferation of cancer cell lines was expressed in % inhibition and calculated as follows. […]
as §6, with “proliferation” for “pERK signal”, “a EC50” for “an IC50”, “effect” for “inhibition”

[3] = test system: pERK in NCIH1755 cells (BRAF G469A); experiment: Phospho-ERK inhibition (AlphaLISA), NCIH1755; details: for NCIH1755 pERK % Ymin: NCIH1755, value in parentheses
Procedure: as §1, §2, §3, §4, §5, §6, §7

A2058 cells (BRAF V600E) = experiment: Proliferation inhibition (CellTiter-Glo), A2058; details: A2058, 3 days; read-out: A2058 Prolif. EC50
Procedure: as §1, with “Trypsin was then inactivated by adding complete growth medium and the cells were then replated in a T175 culture dish at the appropriate dilution. All cell lines were routinely tested for mycoplasma contamination. Tissue type and mutational status of each cell line can be found in Table B.” left out
as §8, §9
as §6, with “proliferation” for “pERK signal”, “a EC50” for “an IC50”, “effect” for “inhibition”

A101D cells (BRAF V600E) = experiment: Proliferation inhibition (CellTiter-Glo), A101D; details: 3 days, read-out: A101D Prolif. EC50
Procedure: as §1, with “Trypsin was then inactivated by adding complete growth medium and the cells were then replated in a T175 culture dish at the appropriate dilution. All cell lines were routinely tested for mycoplasma contamination. Tissue type and mutational status of each cell line can be found in Table B.” left out
as §8, §9
as §6, with “proliferation” for “pERK signal”, “a EC50” for “an IC50”, “effect” for “inhibition”

Row | SMILES | HepG2 pERK % Ymin [1] [%] | IC50 ([1]; Homo sapiens) [nM] | IC50 ([2]; Homo sapiens) [nM] | NCI-H2122 pERK % Ymin [2] [%] | EC50 (HepG2 cells (NRAS-Q61L); Homo sapiens, 72 h) [nM] | IC50 ([3]; Homo sapiens, NCI-H1755) [nM] | NCIH1755 pERK % Ymin [3] [%] | IC50 [1] [nM] | IC50 [2] [nM] | EC50 (A2058 cells (BRAF V600E)) [nM] | EC50 (HepG2 cells (NRAS-Q61L)) [nM] | IC50 ([3]; NCIH1755) [nM] | EC50 (A101D cells (BRAF V600E)) [nM]
1 | Cc1ccc2c(Nc3cccc(Cl)c3F)nccc2c1NC(=O)c1csc2c(N)ncnc12 [Belvarafenib, reference compound] | −36 | 30 to 300 | 30 to 300 | −9 | < 30 | 30 to 300 | −79 | – | – | – | – | – | –
2 | Nc1cccc2c1ncn2-c1ccc2ncnc(Nc3c(F)ccc(NS(=O)(=O)c4cccc(Cl)c4Cl)c3F)c2n1 [Example 99] | 7 | – | – | −3 | – | – | −8 | < 30 | 30 to 300 | < 30 | < 30 | < 30 | < 30
3 | CC1(O)CCN(c2cccc3c2ncn3-c2ccc3ncnc(Nc4c(F)ccc(NS(=O)(=O)c5cccc(Cl)c5Cl)c4F)c3n2)CC1 [Example 524] | 2 | – | – | 13 | – | – | −13 | 30 to 300 | 30 to 300 | < 30 | < 30 | 30 to 300 | < 30
